Values of other authors as cited in patent publication US11793769B2, “Device with compositions for delivery to the lungs, the oral mucosa and the brain” (priority 2014, dated 2023).

Assays:
[1] = molecular target: cannabinoid type II receptor (CB2) (Homo sapiens, UniProt P34972); conditions: compared with CB1
[2] = test system: paclitaxel-induced neuropathic pain; conditions: without affecting the efficacy of the chemotherapy
[3] = test system: animal models of anxiety and depression; conditions: in vivo

Chain of cannabinoid type II receptor (CB2) (P34972 whole entry, species assumed): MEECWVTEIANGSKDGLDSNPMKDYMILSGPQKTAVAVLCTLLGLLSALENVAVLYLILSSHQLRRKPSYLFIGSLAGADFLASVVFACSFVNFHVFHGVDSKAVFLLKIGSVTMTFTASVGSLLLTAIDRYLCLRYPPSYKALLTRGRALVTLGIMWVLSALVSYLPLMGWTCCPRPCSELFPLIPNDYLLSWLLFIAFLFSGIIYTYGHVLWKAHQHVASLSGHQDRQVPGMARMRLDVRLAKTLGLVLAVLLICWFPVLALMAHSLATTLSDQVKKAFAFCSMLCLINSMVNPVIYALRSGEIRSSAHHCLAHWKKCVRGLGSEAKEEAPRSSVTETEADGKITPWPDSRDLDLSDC

SMILES: C=C(C)[C@@H]1CCC(C)=C[C@H]1c1c(O)cc(CCCCC)cc1O [CBD, cannabidiol]
- affinity to CB2 [1]: higher affinity
- effect on paclitaxel-induced neuropathic pain [2]: inhibits paclitaxel-induced neuropathic pain
- effects in animal models of anxiety and depression [3]: both anti-anxiety and antidepressant effects
